The subject of assay [1] is methicillin-resistant staphylococcus aureus (MRSA). Put plainly: Minimum inhibitory concentration (MIC) test against MRSA. The format is cell-based. The procedure: (§1) This complex can be easily compared to the cefazolin sodium salt by testing the minimum inhibitory concentration (MIC). Initial tests were performed against a drug resistant gram negative bacterium; carbapenem-resistant enterobacteriaceae (CRE) and a drug resistant gram positive bacterium; methicillin-resistant staphylococcus aureus (MRSA). […] By transforming the cefazolin sodium salt into a silver complex, it changes the antibiotic that CRE and MRSA are resistant to, to a compound that CRE and MRSA are susceptible to. Thus, in several embodiments, the compositions provided for herein lead to a heretofore unseen efficacy against drug-resistant microorganisms.

In assay [2] the test system is carbapenem-resistant enterobacteriaceae (CRE). The experiment in a line: Minimum inhibitory concentration (MIC) test against CRE. The format is cell-based. The conditions noted are these: drug resistant gram negative bacterium. The protocol: as §1

Where a name gives a salt, the structure may show the parent alone. Read-outs that look alike come from different tables or passages of the source. Bounds are passed on as bounds.

Take `Cc1nnc(SCC2=C(C(=O)O)N3C(=O)[C@@H](NC(=O)Cn4cnnn4)[C@H]3SC2)s1` [cefazolin sodium salt, Cefazolin sodium salt]: the MIC in assay [1] (Staphylococcus aureus) was 256 µg/mL; in assay [2] (read-out: MIC), more than 256 µg/mL.

With cefazolin silver complex, the MIC in assay [1] (drug resistant gram positive bacterium) and in assay [2] was 4 µg/mL in each case.

One may read the MIC as the lowest concentration found to suppress growth.

Source of the values: patent US20150150995A1, “CONJUGATED ANTI-MICROBIAL COMPOUNDS AND CONJUGATED ANTI-CANCER COMPOUNDS AND USES THEREOF” (PONO CORPORATION, priority 2012, published 2015).
